# Source: publication PMC6792352, “Limited Chemical Structural Diversity Found to Modulate Thyroid Hormone Receptor in the Tox21 Chemical Library” (Environmental Health Perspectives, 2019)
# Structures can show the parent of a compound that is named as a salt.
# Assay: in vitro
# Conditions: rat, gh3-tre-luc cells, AC50 (uM) modified / 1000
row,Structure (SMILES),CC50 at 24 h [µM]
1,O=C1c2cccc3c2[C@H](CCC3)CN1[C@@H]1CN2CCC1CC2 [Palonosetron hydrochloride],23.5
2,C[C@H](N)C(=O)c1ccccc1 [(-)- (S)-Cathinone hydrochloride],> 50
3,CC(C)(C)NCC(O)COc1cccc2c1C[C@H](O)[C@H](O)C2 (mixture of isomers) [Nadolol],> 20
4,O=c1cccccc1O [Tropolone],22.1
5,CN(C(=O)CCCOc1ccc2[nH]c(=O)ccc2c1)C1CCCCC1 [Cilostamide],> 50
6,CSC(=O)c1c(C(F)F)nc(C(F)(F)F)c(C(=O)SC)c1CC(C)C [Dithiopyr],57.6
7,CC1=CC[C@@H](C(C)(C)O)CC1 [alpha-Terpineol],> 90
8,C/C(=C(\CCOP(=O)(O)O)SC(=O)c1ccccc1)N(C=O)Cc1cnc(C)nc1N [Benfotiamine],> 20
9,CN(C)CCC=C1c2ccccc2C=Cc2ccccc21 [Cyclobenzaprine hydrochloride],14.5
10,CN(C)C1CSSSC1 [Thiocyclam oxalate],> 90
11,CCCCCCCCCCN [1-Decanamine],> 90
12,COCCOCCO [Diethylene glycol monomethyl ether],> 90
13,CC[C@H](C)[C@@H]1NC(=O)[C@H](Cc2ccc(O)cc2)NC(=O)[C@@H](N)CSSC[C@@H](C(=O)N2CCC[C@H]2C(=O)N[C@@H](CC(C)C)C(=O)NCC(N)=O)NC(=O)[C@H](CC(N)=O)NC(=O)[C@H](CCC(N)=O)NC1=O [Oxytocin acetate],> 50
14,Cc1ccc(/C(=C\CN2CCCC2)c2ccccn2)cc1 [Triprolidine hydrochloride monohydrate],58.4
15,CCCCOC(=O)CCCCCCCCC(=O)OCCCC [Dibutyl decanedioate],> 90
16,CCn1nc(Cc2ccccc2)cc1C1CCN(C[C@H]2C[C@H](N(C)[C@@H](C(=O)O)C(C)C)C[C@@H]2c2cccc(F)c2)CC1 [MK-578],66.4
17,O=C(CN1CCN(Cc2ccc3c(c2)OCO3)CC1)N1c2ccccc2Sc2ccccc21 [Fenoverine],23.4
18,"CCN(CC)c1ccc(N)cc1 [N,N-Diethylbenzene-1,4-diamine]",64.7
19,CC1(C)S[C@@H]2[C@H](NC(=O)C(c3ccccc3)S(=O)(=O)O)C(=O)N2[C@H]1C(=O)O (stereo partly shown) [Sulbenicillin disodium],> 50
20,Cc1ccncc1 [4-Methylpyridine],> 100

row,Structure (SMILES),CC50 at 24 h [µM]
1,Cc1ccc(N)c(S(=O)(=O)O)c1 [2-Amino-5-methylbenzenesulfonic acid],> 90
2,NC(=O)CC[C@@H]1NC(=O)[C@H](Cc2ccccc2)NC(=O)[C@H](Cc2ccc(O)cc2)NC(=O)CCSSC[C@@H](C(=O)N2CCC[C@H]2C(=O)N[C@H](CCCN=C(N)N)C(=O)NCC(N)=O)NC(=O)[C@H](CC(N)=O)NC1=O [Desmopressin],> 50
3,CCN1C(=O)NC(c2ccccc2)C1=O (stereo not shown) [Ethotoin],> 20
4,c1ccc(CN(Cc2ccccc2)Cc2ccccc2)cc1 [Tribenzylamine],> 90
5,CC1(C)C(C=C(Cl)Cl)[C@@H]1C(=O)O[C@@H](C#N)c1ccc(F)c(Oc2ccccc2)c1 (stereo partly shown) [Cyfluthrin],> 90
6,CC/C=C\CC1=C(C)CCC1=O [Jasmone],> 90
7,"O=C(Nc1ccc([N+](=O)[O-])cc1)Nc1ccc([N+](=O)[O-])cc1 [4,4'-Dinitrodiphenylurea]",> 50
8,CCCCCCCCCCCCCCCCCCOCCO [Polyethylene glycol stearyl ether],> 20
9,CCC(=O)OCCc1ccccc1 [2-Phenylethyl propionate],> 90
10,Cc1cc(Nc2ccc(O)cc2)ccc1N [4-Amino-4'-hydroxy-3-methyldiphenylamine],11.4
11,"Cc1ccc(N)c(C)c1 [2,4-Dimethylaniline]",> 90
12,CC(C)NCC(O)COc1ccccc1-n1cccc1 (stereo not shown) [Isamoltan],> 50
13,C=CC(=C)CCC=C(C)C [Myrcene],> 90
14,"Cc1ccc(NC=O)c(C)c1 [N-(2,4-Dimethylphenyl)formamide]",> 90
15,"COc1ccccc1N=Nc1c(S(=O)(=O)O)cc2cc(S(=O)(=O)O)cc(NC(C)=O)c2c1O [C.I. Acid Violet 12, disodium salt]",36.9
16,"Cc1ccc(C)c2ccccc12 [1,4-Dimethylnaphthalene]",> 90
17,CCOC(=O)[C@H](CCc1ccccc1)N[C@@H](C)C(=O)N1C(=O)N(C)C[C@H]1C(=O)O [Imidapril hydrochloride],> 50
18,CN(N=O)c1ccccc1 [Nitrosomethylaniline],> 90
19,"OC1OCCOC1O (stereo not shown) [1,4-Dioxane-2,3-diol]",> 90
20,Cn1cnc2c(F)c(Nc3ccc(Br)cc3Cl)c(C(=O)NOCCO)cc21 [Selumetinib],> 50

row,Structure (SMILES),CC50 at 24 h [µM]
1,CCCCCCCCS(=O)(=O)Cl [1-Octanesulfonyl chloride],> 90
2,ClCc1ccccn1 [2-(Chloromethyl)pyridine hydrochloride],> 90
3,O=C(O)Cc1cc(I)c(Oc2ccc(O)c(I)c2)c(I)c1 [Tiratricol],> 20
4,NCCCC[C@H](N)C(=O)O [Lysine],> 50
5,CC[C@H](C)[C@H]1O[C@]2(CC[C@@H]1C)C[C@@H]1C[C@@H](C/C=C(\C)[C@@H](O[C@H]3C[C@H](OC)[C@@H](O[C@H]4C[C@H](OC)[C@@H](O)[C@H](C)O4)[C@H](C)O3)[C@@H](C)/C=C/C=C3\CO[C@@H]4[C@H](O)C(C)=C[C@@H](C(=O)O1)[C@]34O)O2 [Ivermectin B1a],2.85
6,CC(C(=O)O)c1ccc(C(=O)c2cccs2)cc1 (stereo not shown) [Suprofen],> 20
7,CC(=O)O[C@H]1CC[C@@]2(C)C(=CC[C@H]3[C@@H]4CC[C@H](C(C)=O)[C@@]4(C)CC[C@@H]32)C1 [3beta-Acetoxy-5-pregnene-20-one],> 50
8,CC1CC[C@@H]2C[C@H]1C2(C)C (stereo partly shown) [Pinane],> 90
9,CC(C)NCC(O)COc1cccc2[nH]ccc12 (stereo not shown) [Pindolol],> 50
10,CCC[C@H](N[C@@H](C)C(=O)N1[C@H](C(=O)O)C[C@@H]2CCCC[C@@H]21)C(=O)OCC [Perindopril],> 50
11,CC(=O)/C(C)=C/C1C(C)=CCCC1(C)C (stereo not drawn) [alpha-Isomethylionone],> 90
12,NCCN [Ethylenediamine],> 90
13,c1cc(OCC2CO2)cc(OCC2CO2)c1 (stereo not shown) [Diglycidyl resorcinol ether],17.3
14,CC[C@@]1(c2ccccc2)NC(=O)N(C)C1=O [(S)-Mephenytoin],> 50
15,O=NN1CCNCC1 [N-Nitrosopiperazine],> 100
16,COc1c2occc2c(OC)c2c(=O)cc(C)oc12 [Khellin],> 20
17,Oc1cccc2ccccc12 [1-Naphthol],> 90
18,CC(=O)Nc1cccc(N)c1 [3-Aminoacetanilide],> 90
19,NNCCc1ccccc1 [Phenylethylhydrazine sulfate],32.3

# Same assay, conditions: rat, gh3-tre-luc cells, AC50 (uM) modified / 1000, Tox21_110001=Tox21_200355; viability, 1 nM T3 present, 24 h
row,Structure (SMILES),CC50 at 24 h [µM]
1,CCBr [Bromoethane],> 90

# Same assay, conditions: rat, gh3-tre-luc cells, AC50 (uM) modified / 1000, Tox21_110001=Tox21_201442; viability, 1 nM T3 present, 24 h
row,Structure (SMILES),CC50 at 24 h [µM]
1,O=[N+]([O-])c1ccccc1O [2-Nitrophenol],> 90

# Same assay, conditions: rat, gh3-tre-luc cells, AC50 (uM) modified / 1000, Tox21_110001=Tox21_201502; viability, 1 nM T3 present, 24 h
row,Structure (SMILES),CC50 at 24 h [µM]
1,CC(=O)C=Cc1ccccc1 [Methyl styryl ketone],> 90

# Same assay, conditions: rat, gh3-tre-luc cells, AC50 (uM) modified / 1000, Tox21_110001=Tox21_201723; viability, 1 nM T3 present, 24 h
row,Structure (SMILES),CC50 at 24 h [µM]
1,"Nc1ccc(Cc2ccc(N)cc2)cc1 [4,4'-Methylenedianiline]",> 90

# Same assay, conditions: rat, gh3-tre-luc cells, AC50 (uM) modified / 1000, Tox21_110001=Tox21_202199; viability, 1 nM T3 present, 24 h
row,Structure (SMILES),CC50 at 24 h [µM]
1,CN(C)NC(=O)CCC(=O)O [Daminozide],> 90
